Like-named read-outs stand apart in the source and are kept apart here.
Experiment: Study .4: 4-week treatment of diabetic patients, once daily, pharmacokinetic parameters
Assay type: in vivo, human
Details: for AUCτ,ss,norm Max / AUCτ,ss,norm Median / AUCτ,ss,norm Min / AUCτ,ss,norm gMean: Study .4, steady state, dose-normalized
Protocol: 5. Pharmacokinetic Parameters
The pharmacokinetic parameters of pharmaceutical compositions and pharmaceutical dosage forms are assessed in healthy volunteer and patient populations. In the studies shown below, the participants fasted on the day of sampling, unless as otherwise stated (see for example study .3). The active substance in the studies below is the compound (I.9), preferably in the crystalline form (I.9X), and the dose of active ingredient is indicated in mg.
For the quantification of plasma concentrations of the active ingredient, 2.7 mL of blood was collected and transferred into an EDTA (ethylendiaminetetraacetic acid)-anticoagulant blood drawing tube. The EDTA-anticoagulated blood samples were centrifuged immediately after collection. Centrifugation lasted for about 10 minutes (at about 2,000×gf to 4,000×gf) at 4-8° C. or within 30 minutes while stored on ice. Concentrations of active substance in EDTA human plasma samples were quantitated using a HPLC/MS/MS method. The assay method comprised a solid phase supported liquid-liquid extraction of human plasma coupled with HPLC/MS/MS determination of the extracted samples. The HPLC/MS/MS assay was validated for the range of 1.11 to 1110 nM in human plasma.
Study .4: 4-week treatment of a diabetic patient population of N=78, once daily administration for 4 weeks. Patients were administered tablets as described in Example 10 (section Examples of formulations).
AUC0-inf:area under the concentration-time curve of the analyte in plasma over the time interval from 0 extrapolated to infinity.
Cmax: maximum concentration of the analyte in plasma.
Tmax: time from dosing to maximum concentration.
AUCT,SS:area under the concentration-time curve of the analyte in plasma over the time interval from 0 to 24 h at steady-state.
Cmax,ss:maximum concentration of the analyte in plasma at steady state over a uniform dosing interval.
tmax,ss:time from dosing to maximum concentration at steady state.

[1] = 25 mg once daily, steady state, Study .4, fasted
[2] = 25 mg single dose, Study .4, fasted

SMILES: OC[C@H]1O[C@@H](c2ccc(Cl)c(Cc3ccc(O[C@H]4CCOC4)cc3)c2)[C@H](O)[C@@H](O)[C@@H]1O [Compound (I.9), 1-chloro-4-(β-D-glucopyranos-1-yl)-2-[4-((S)-tetrahydrofuran-3-yloxy)-benzyl]-benzene]
- Cmax (10 mg single dose, Study .4, fasted, read-out: Cmax Max): 796 nM
- Cmax (10 mg single dose, Study .4, fasted, read-out: Cmax Min): 205 nM
- AUCτ,ss Max [1]: 7.64 µM·h
- AUCτ,ss Min [1]: 2.79 µM·h
- tmax,ss Max [1]: 3.02 h
- tmax,ss Min [1]: 0.750 h
- AUC0-inf Max [2]: 7.17 µM·h
- AUC0-inf Min [2]: 2.84 µM·h
- AUC0-inf,norm Max [2]: 287 nmol·h/L/mg
- AUC0-inf,norm Median [2]: 171 nmol·h/L/mg
- AUC0-inf,norm Min [2]: 114 nmol·h/L/mg
- AUC0-inf,norm gMean [2]: 170 nmol·h/L/mg
- tmax Min [2]: 0.750 h
- Cmax (25 mg single dose, Study .4, fasted, read-out: Cmax Max): 1030 nM
- Cmax (25 mg single dose, Study .4, fasted, read-out: Cmax Min): 496 nM
- AUCτ,ss,norm Max (dose 10 mg, plasma): 260 nmol·h/L/mg
- AUCτ,ss,norm Median (dose 10 mg, plasma): 184 nmol·h/L/mg
- AUCτ,ss,norm Min (dose 10 mg, plasma): 135 nmol·h/L/mg
- AUCτ,ss,norm gMean (dose 10 mg, plasma): 185 nmol·h/L/mg
- AUCτ,ss,norm Max (dose 25 mg, plasma): 306 nmol·h/L/mg
- AUCτ,ss,norm Median (dose 25 mg, plasma): 179 nmol·h/L/mg
- AUCτ,ss,norm Min (dose 25 mg, plasma): 112 nmol·h/L/mg
- AUCτ,ss,norm gMean (dose 25 mg, plasma): 186 nmol·h/L/mg
- AUC (human, plasma, oral, 10 mg, 10 mg once daily, steady state, Study .4, fasted, read-out: AUCτ,ss Mean): 1.87 µM·h
- AUC (human, plasma, oral, 10 mg, 10 mg once daily, steady state, Study .4, fasted, read-out: AUCτ,ss Median): 1.84 µM·h
- AUC (human, plasma, oral, 10 mg, 10 mg once daily, steady state, Study .4, fasted, read-out: AUCτ,ss gMean): 1.85 µM·h
- Cmax (human, plasma, oral, 10 mg, 10 mg once daily, steady state, Study .4, fasted, read-out: Cmax,ss Mean): 259 nM
- Cmax (human, plasma, oral, 10 mg, 10 mg once daily, steady state, Study .4, fasted, read-out: Cmax,ss Median): 251 nM
- Cmax (human, plasma, oral, 10 mg, 10 mg once daily, steady state, Study .4, fasted, read-out: Cmax,ss gMean): 252 nM
- Tmax (human, plasma, oral, 10 mg, 10 mg once daily, steady state, Study .4, fasted, read-out: tmax,ss Mean): 1.72 h
- Tmax (human, plasma, oral, 10 mg, 10 mg once daily, steady state, Study .4, fasted, read-out: tmax,ss Median): 1.5 h
- Tmax (human, plasma, oral, 10 mg, 10 mg once daily, steady state, Study .4, fasted, read-out: tmax,ss g Mean): 1.61 h
- AUC(0-inf) (human, plasma, oral, 10 mg, 10 mg single dose, Study .4, fasted, read-out: AUC0-inf Mean): 1.74 µM·h
- AUC(0-inf) (human, plasma, oral, 10 mg, 10 mg single dose, Study .4, fasted, read-out: AUC0-inf Median): 1.73 µM·h
- AUC(0-inf) (human, plasma, oral, 10 mg, 10 mg single dose, Study .4, fasted, read-out: AUC0-inf gMean): 1.72 µM·h
- Cmax (human, plasma, oral, 10 mg, 10 mg single dose, Study .4, fasted, read-out: Cmax Mean): 309 nM
- Cmax (human, plasma, oral, 10 mg, 10 mg single dose, Study .4, fasted, read-out: Cmax Median): 271 nM
- Cmax (human, plasma, oral, 10 mg, 10 mg single dose, Study .4, fasted, read-out: Cmax gMean): 291 nM
- Tmax (human, plasma, oral, 10 mg, 10 mg single dose, Study .4, fasted, read-out: tmax Mean): 1.5 h
- Tmax (human, plasma, oral, 10 mg, 10 mg single dose, Study .4, fasted, read-out: tmax Median): 1.5 h
- Tmax (human, plasma, oral, 10 mg, 10 mg single dose, Study .4, fasted, read-out: tmax gMean): 1.44 h
- AUC (human, plasma, oral, 25 mg, 25 mg once daily, steady state, Study .4, fasted, read-out: AUCτ,ss Mean): 4.74 µM·h
- AUC (human, plasma, oral, 25 mg, 25 mg once daily, steady state, Study .4, fasted, read-out: AUCτ,ss Median): 4.48 µM·h
- AUC (human, plasma, oral, 25 mg, 25 mg once daily, steady state, Study .4, fasted, read-out: AUCτ,ss gMean): 4.64 µM·h
- Cmax (human, plasma, oral, 25 mg, 25 mg once daily, steady state, Study .4, fasted, read-out: Cmax,ss Mean): 687 nM
- Cmax (human, plasma, oral, 25 mg, 25 mg once daily, steady state, Study .4, fasted, read-out: Cmax,ss Median): 671 nM
- Cmax (human, plasma, oral, 25 mg, 25 mg once daily, steady state, Study .4, fasted, read-out: Cmax,ss gMean): 676 nM
- Tmax (human, plasma, oral, 25 mg, 25 mg once daily, steady state, Study .4, fasted, read-out: tmax,ss Mean): 1.55 h
- Tmax (human, plasma, oral, 25 mg, 25 mg once daily, steady state, Study .4, fasted, read-out: tmax,ss Median): 1.5 h
- Tmax (human, plasma, oral, 25 mg, 25 mg once daily, steady state, Study .4, fasted, read-out: tmax,ss g Mean): 1.4 h
- AUC(0-inf) (human, plasma, oral, 25 mg, 25 mg single dose, Study .4, fasted, read-out: AUC0-inf Mean): 4.34 µM·h
- AUC(0-inf) (human, plasma, oral, 25 mg, 25 mg single dose, Study .4, fasted, read-out: AUC0-inf Median): 4.27 µM·h
- AUC(0-inf) (human, plasma, oral, 25 mg, 25 mg single dose, Study .4, fasted, read-out: AUC0-inf gMean): 4.24 µM·h
- Cmax (human, plasma, oral, 25 mg, 25 mg single dose, Study .4, fasted, read-out: Cmax Mean): 722 nM
- Cmax (human, plasma, oral, 25 mg, 25 mg single dose, Study .4, fasted, read-out: Cmax Median): 697 nM
- Cmax (human, plasma, oral, 25 mg, 25 mg single dose, Study .4, fasted, read-out: Cmax gMean): 709 nM
- Tmax (human, plasma, oral, 25 mg, 25 mg single dose, Study .4, fasted, read-out: tmax Mean): 1.39 h
- Tmax (human, plasma, oral, 25 mg, 25 mg single dose, Study .4, fasted, read-out: tmax Median): 1.5 h
- Tmax (human, plasma, oral, 25 mg, 25 mg single dose, Study .4, fasted, read-out: tmax gMean): 1.33 h

— patent publication US20180289678A1, “PHARMACEUTICAL COMPOSITION, PHARMACEUTICAL DOSAGE FORM, PROCESS FOR THEIR PREPARATION, METHODS FOR TREATING AND USES THEREOF” (Boehringer Ingelheim International GmbH, priority 2009, published 2018)
